Experimental findings from US20160220464A1 (WUHAN OPTICS VALLEY BRIDGEBIOMED INTERNATIONAL CORPORATION, priority 2013, published 2016) are described below.

One experiment concerns the target T1, B2 receptor (Homo sapiens, UniProt P30411).
T1 construct: The cell strains used in the study were human primary vein endothelial cells (HPVEC) and human aortic smooth muscle cells (HASMC); endogenous in cells; host or cells: human primary vein endothelial cells (HPVEC) and human aortic smooth muscle cells (HASMC)
T1 sequence (P30411 1-391): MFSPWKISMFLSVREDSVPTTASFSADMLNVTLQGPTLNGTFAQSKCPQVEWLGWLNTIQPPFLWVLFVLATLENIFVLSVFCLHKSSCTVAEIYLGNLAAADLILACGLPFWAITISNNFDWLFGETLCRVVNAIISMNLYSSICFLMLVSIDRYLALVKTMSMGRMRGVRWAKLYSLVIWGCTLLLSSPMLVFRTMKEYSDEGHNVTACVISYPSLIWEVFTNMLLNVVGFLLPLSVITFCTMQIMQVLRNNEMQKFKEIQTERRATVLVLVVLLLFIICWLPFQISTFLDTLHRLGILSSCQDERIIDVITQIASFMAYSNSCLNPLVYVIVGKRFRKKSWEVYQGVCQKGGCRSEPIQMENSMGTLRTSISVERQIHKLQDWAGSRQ
Briefly: Relative PG secretion with B2 receptor inhibitor HOE-140. The class given is cell-based. The following applies: 1 μM BK set as 100%. On the procedure: Two different cell lines were transferred into T-75 cell culture flask, and then the instructions of PG kit were strictly followed when cells have reached the appropriate density. Day 1. Cells were seeded in 24 well dishes with minimum medium and allowed to adhere overnight. Day 2. Cells were starved in the serum-free conditioned medium. Day 3. […] Cells were incubated at 37° C. for 1 h. The supernatant was collected after incubation for later use. Day 4. 24 well dishes were washed and then dyed for 45-90 min, and then the quantitative analysis was carried out.

The test system of experiment [1] is human primary vein endothelial cells (HPVEC). The experiment is described as follows: PG subtype secretion by EIA in HPVEC. To be noted: 10 nM, 1 μM BK set as 100%. The class given is cell-based. Here is the method:
In order to study of prostaglandin subtypes secretion triggered by activation of B2 receptor by these three compounds, human primary vein endothelial cells (HPVEC) and human aortic smooth muscle cells (HASMC) were used for PG secretion, following the same protocol above; 10 nM of these compounds, YLB-1, YLB-2, YLB-3 was added. […] These percentage values above were all calibrated with respect to bradykinin.

In another experiment the test system is human lower leg hair. The experiment is described as follows: Hair growth after topical 0.3% suspension on human lower leg. The class given is in vivo. The following applies: twice a day. The text has this: The B2 receptor agonist (YLB-01) suspension with 0.3% concentration was obtained for clinical use as described above. The suspension was applied to human lower leg twice a day, for 3 months; hair growth was observed. The treated areas were observed daily to monitor hair growth and side effects, e.g. swelling, pruritus, pain, etc. And the treated parts were photographed weekly.
The B2 receptor agonist (YLB-01) suspension with 0.3% concentration was obtained for clinical use as described above and was applied to human lower leg twice a day, for 3 months; hair growth was observed. The treated areas were observed daily to monitor hair growth and side effects, e.g. swelling, pruritus, pain, etc. And the treated parts were photographed weekly.

Experiment [2] relates to human aortic smooth muscle cells (HASMC). Briefly: PG subtype secretion by EIA in HASMC. The class given is cell-based. To be noted: 10 nM, 1 μM BK set as 100%.

`CNC(=O)c1ccc(CCC(=O)NCC(=O)N(C)c2ccc(Cl)c(COc3cccc4c3nc(OC)n4Cc3ccccn3)c2Cl)cc1` [YLB-01, 4-(3-2-((2,4-dichloro-3-((2-methoxy-1-(pyridine-2ylmethyl)-1H-benzo[d]imidazol-4-yloxy)methyl)phenyl)(methyl)amino-2-oxoethylamino)-3-oxopropyl)-N-methylbenzamid]: the “Relative PG Secretion Amount with 1 μM HOE-140” value at B2 receptor (agonist 0.1 nM + HOE-140 1 μM) is 1.54 ± 2.53%; at B2 receptor (agonist 1 nM + HOE-140 1 μM) it was 4.21 ± 3.74%; at B2 receptor (agonist 10 nM + HOE-140 1 μM), 4.17 ± 3.21%; on B2 receptor (agonist 30 nM + HOE-140 1 μM) it was 2.86 ± 2.35%; on B2 receptor (agonist 100 nM + HOE-140 1 μM), 3.44 ± 3.77%; on B2 receptor (agonist 300 nM + HOE-140 1 μM) it was 0.45 ± 2.86%. Moreover, the entries for the “Relative PG Secretion Amount with 1 μM HOE-140” value on B2 receptor (agonist 1 μM + HOE-140 1 μM), on B2 receptor (agonist 3 μM + HOE-140 1 μM) and at B2 receptor (agonist 10 μM + HOE-140 1 μM) were 3.66 ± 2.11%, 6.98 ± 1.6% and 40.32 ± 3.27%, respectively. Moreover, the PGD2 result in experiment [1] and in experiment [2] was “undetectable” throughout. The results for the PGE2 in experiment [1] and in experiment [2] were 30.24 ± 5.40% and 34.64 ± 12.27%, respectively. For the same compound, the PGF-2a is 6.29 ± 1.01% in experiment [1] and 5.68 ± 2.08% in experiment [2]. Further, the hair growth is reported as 0 mm in the experiment with human lower leg hair (0 week), 4.89 ± 0.38 mm in the experiment on human lower leg hair (2 weeks), 6.82 ± 0.4 mm in the experiment with human lower leg hair (3 weeks) and 9.61 ± 0.55 mm in the experiment on human lower leg hair (4 weeks). In the experiment on human lower leg hair (3 months), the “hair growth compared with control group (photos, FIG. 2)” value is “hairs grew more quickly than those in control group”. In addition, the “new hair growth in parts used to be bald (photos, FIG. 1)” value in the experiment with human lower leg hair (3 months) is on record as “tiny new hairs grew out”.
